ChEMBL document CHEMBL5131502, “Improving the treatment of Parkinson's disease: Structure-based development of novel 5-HT2A receptor antagonists/inverse agonists” (Eur J Med Chem, 2022)
Values after ≈ are worked out from the molar mass of the structure shown.

How the values were obtained:
[1] = Plasma protein binding in monkey at 10 uM; type: ADME, cell-free, Macaca mulatta; conditions: rhesus monkey, read-out: PPB (converted)
[2] = Plasma protein binding in human at 10 uM; type: ADME, cell-free; conditions: read-out: PPB (converted)
[3] = target: Cytochrome P450 2D6 (Homo sapiens, UniProt P10635); assay: Inhibition of CYP2D6 (unknown origin); type: ADME
Chain of Cytochrome P450 2D6 (P10635 whole entry): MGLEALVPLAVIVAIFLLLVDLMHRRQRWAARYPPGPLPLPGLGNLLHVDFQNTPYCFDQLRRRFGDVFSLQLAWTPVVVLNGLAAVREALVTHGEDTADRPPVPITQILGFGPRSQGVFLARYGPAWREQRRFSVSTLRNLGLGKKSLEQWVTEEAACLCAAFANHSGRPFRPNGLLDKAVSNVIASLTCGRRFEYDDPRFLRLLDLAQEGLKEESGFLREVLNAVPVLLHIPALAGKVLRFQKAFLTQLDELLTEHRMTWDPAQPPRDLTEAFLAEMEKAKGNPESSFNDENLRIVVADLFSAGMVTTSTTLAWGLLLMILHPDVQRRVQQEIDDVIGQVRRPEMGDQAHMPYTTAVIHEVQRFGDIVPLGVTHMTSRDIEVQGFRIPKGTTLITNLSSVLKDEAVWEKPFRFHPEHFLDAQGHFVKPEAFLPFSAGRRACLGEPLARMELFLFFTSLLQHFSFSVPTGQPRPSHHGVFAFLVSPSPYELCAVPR

[4] = Metabolic stability in Sprague-Dawley rat liver microsomes assessed as compound remaining at 100 uM […] followed by NADPH addition by LC/MS analysis; type: ADME, Microsome; conditions: read-out: Stability
[5] = target: T1, 5-hydroxytryptamine receptor 2A (Homo sapiens, UniProt P28223); assay: Displacement of [3H]-Ketanserin from human 5-HT2A receptor at 50 nM incubated for 1 hr by microbeta scintillation counter analysis
T1 sequence (P28223 whole entry): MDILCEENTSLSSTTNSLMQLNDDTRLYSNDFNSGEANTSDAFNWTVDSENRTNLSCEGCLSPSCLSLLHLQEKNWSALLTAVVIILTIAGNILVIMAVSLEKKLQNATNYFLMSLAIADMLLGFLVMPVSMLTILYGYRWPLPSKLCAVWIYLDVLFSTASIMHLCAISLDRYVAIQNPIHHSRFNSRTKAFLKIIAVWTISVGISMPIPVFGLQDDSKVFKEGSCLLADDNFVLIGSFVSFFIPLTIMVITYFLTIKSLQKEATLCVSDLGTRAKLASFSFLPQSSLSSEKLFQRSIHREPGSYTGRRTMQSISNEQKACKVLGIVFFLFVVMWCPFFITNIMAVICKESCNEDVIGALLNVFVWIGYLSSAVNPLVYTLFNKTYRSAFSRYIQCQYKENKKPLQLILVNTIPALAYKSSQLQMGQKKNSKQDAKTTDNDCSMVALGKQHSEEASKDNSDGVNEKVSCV

[6] = Dissociation constant, pKa of the compound; type: physicochemical
[7] = Plasma protein binding in rat at 10 uM; type: ADME, cell-free; conditions: read-out: PPB (converted)
[8] = target: Voltage-gated inwardly rectifying potassium channel KCNH2 (Homo sapiens, UniProt Q12809); assay: Inhibition of hERG potassium channel expressed in CHO cells at -80 mV holding potential by whole cell patch clamp assay; type: toxicity, cell-based
Chain of Voltage-gated inwardly rectifying potassium channel KCNH2 (Q12809 whole entry): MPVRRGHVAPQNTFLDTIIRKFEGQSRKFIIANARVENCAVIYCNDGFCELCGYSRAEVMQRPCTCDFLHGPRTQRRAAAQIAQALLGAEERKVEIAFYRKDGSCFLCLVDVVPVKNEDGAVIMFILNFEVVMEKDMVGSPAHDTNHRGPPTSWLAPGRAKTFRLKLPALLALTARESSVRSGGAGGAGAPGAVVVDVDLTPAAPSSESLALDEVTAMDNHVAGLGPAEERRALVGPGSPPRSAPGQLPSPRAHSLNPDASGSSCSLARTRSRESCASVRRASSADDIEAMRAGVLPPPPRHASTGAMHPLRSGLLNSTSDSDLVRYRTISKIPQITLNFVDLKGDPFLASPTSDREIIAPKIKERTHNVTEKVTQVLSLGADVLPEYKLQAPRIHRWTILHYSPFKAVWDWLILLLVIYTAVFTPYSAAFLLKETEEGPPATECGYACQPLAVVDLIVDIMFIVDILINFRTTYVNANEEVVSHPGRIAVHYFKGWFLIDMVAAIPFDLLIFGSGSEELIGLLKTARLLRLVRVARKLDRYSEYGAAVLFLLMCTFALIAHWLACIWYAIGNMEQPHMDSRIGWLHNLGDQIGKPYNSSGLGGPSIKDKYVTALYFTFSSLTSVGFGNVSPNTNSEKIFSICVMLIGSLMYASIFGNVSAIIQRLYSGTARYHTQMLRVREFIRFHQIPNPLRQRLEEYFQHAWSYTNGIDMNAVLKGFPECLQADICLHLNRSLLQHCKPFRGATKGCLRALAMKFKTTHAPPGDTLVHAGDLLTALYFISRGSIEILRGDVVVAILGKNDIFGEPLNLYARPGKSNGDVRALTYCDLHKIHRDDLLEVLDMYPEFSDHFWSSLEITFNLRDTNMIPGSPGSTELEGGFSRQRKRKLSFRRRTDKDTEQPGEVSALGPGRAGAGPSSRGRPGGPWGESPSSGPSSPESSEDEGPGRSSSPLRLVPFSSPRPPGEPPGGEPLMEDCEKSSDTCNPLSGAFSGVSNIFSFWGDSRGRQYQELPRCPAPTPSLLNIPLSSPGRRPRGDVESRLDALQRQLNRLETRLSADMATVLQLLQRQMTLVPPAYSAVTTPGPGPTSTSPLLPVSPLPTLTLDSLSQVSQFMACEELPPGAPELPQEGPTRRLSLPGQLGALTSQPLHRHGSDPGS

[9] = target: T1, 5-hydroxytryptamine receptor 2A; assay: Inverse agonist activity at 5-HT2A receptor (unknown origin) expressed in mouse NIH3T3 cells using o-nitrophenyl-D-galacto pyranoside incubated for 120 hrs; type: functional, cell-based
[10] = Metabolic stability in Sprague-Dawley rat liver microsomes assessed as half life at 100 uM preincubated for 10 mins followed by NADPH addition by LC/MS analysis; type: ADME, Microsome
[11] = Metabolic stability in human liver microsomes assessed as half life at 100 uM preincubated for 10 mins followed by NADPH addition by LC/MS analysis; type: ADME, Microsome
[12] = Metabolic stability in Sprague-Dawley rat liver microsomes assessed as intrinsic clearance at 100 uM preincubated for 10 mins followed by NADPH addition by LC/MS analysis; type: ADME, Microsome; conditions: read-out: CLH
[13] = Metabolic stability in human liver microsomes assessed as intrinsic clearance at 100 uM preincubated for 10 mins followed by NADPH addition by LC/MS analysis; type: ADME, Microsome; conditions: read-out: CLH
[14] = Metabolic stability in human liver microsomes assessed as compound remaining at 100 uM […] followed by NADPH addition by LC/MS analysis; type: ADME, Microsome; conditions: read-out: Stability
[15] = target: 5-hydroxytryptamine receptor 2B (Homo sapiens, UniProt P41595); assay: Displacement of [3H]-LSD from human 5-HT2B receptor at 25 uM incubated for 1 hr by microbeta2 beta-counter analysis
Chain of 5-hydroxytryptamine receptor 2B (P41595 whole entry): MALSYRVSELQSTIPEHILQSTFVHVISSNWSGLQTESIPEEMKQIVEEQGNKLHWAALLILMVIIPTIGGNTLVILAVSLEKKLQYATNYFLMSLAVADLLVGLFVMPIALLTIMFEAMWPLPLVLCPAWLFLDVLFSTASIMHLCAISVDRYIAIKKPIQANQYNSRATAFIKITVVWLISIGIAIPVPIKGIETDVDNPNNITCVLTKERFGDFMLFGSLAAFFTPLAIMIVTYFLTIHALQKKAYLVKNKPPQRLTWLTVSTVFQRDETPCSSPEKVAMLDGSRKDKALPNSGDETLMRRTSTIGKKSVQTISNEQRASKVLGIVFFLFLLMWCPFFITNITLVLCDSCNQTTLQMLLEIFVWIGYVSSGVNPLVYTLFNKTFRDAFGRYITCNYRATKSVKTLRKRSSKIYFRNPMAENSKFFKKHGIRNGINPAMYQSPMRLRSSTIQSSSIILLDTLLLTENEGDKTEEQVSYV

[16] = target: T2, 5-hydroxytryptamine receptor 2C (Homo sapiens, UniProt P28335); assay: Displacement of [3H]- Mesulergine from human 5-HT2C receptor at 300 nM incubated for 1 hr by microbeta2 beta-counter analysis
T2 sequence (P28335 whole entry): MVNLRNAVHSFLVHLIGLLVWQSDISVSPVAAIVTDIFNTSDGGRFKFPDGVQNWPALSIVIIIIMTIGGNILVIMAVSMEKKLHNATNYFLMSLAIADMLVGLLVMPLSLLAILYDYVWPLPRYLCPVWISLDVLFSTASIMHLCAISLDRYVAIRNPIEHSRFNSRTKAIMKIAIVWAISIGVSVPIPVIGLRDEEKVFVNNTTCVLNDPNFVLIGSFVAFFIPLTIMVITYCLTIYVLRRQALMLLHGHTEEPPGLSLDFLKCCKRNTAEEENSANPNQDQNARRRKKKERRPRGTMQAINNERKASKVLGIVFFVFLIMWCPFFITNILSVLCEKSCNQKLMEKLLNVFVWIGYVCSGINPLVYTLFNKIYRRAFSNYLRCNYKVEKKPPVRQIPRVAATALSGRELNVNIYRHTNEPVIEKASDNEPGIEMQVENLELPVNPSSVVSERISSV

[17] = Lipophilicity, logD of the compound at pH 7.4; type: physicochemical; conditions: buffer
[18] = Aqueous solubility of compound at pH 7.4; type: physicochemical
[19] = Metabolic stability in dog liver microsomes assessed as compound remaining at 100 uM […] followed by NADPH addition by LC/MS analysis; type: ADME, Canis lupus familiaris, Microsome; conditions: read-out: Stability
[20] = target: T3, Cytochrome P450 1A2 (Homo sapiens, UniProt P05177); assay: Inhibition of CYP1A2 (unknown origin); type: ADME
T3 sequence (P05177 whole entry): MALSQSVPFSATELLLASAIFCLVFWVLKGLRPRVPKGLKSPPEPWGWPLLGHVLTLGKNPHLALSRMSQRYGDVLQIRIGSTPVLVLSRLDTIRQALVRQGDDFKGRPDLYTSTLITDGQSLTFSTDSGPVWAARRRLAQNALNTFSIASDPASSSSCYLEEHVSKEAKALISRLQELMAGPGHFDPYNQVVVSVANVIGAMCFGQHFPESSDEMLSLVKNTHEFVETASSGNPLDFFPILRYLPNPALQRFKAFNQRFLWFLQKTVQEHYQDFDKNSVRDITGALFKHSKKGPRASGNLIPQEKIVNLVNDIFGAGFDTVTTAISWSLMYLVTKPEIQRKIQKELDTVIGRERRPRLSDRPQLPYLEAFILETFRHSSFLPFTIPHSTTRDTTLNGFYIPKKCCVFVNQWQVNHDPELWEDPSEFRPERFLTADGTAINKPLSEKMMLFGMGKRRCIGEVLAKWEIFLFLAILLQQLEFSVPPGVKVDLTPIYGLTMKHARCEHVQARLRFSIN

[21] = target: Cytochrome P450 2C9 (Homo sapiens, UniProt P11712); assay: Inhibition of CYP2C9 (unknown origin); type: ADME
Chain of Cytochrome P450 2C9 (P11712 whole entry): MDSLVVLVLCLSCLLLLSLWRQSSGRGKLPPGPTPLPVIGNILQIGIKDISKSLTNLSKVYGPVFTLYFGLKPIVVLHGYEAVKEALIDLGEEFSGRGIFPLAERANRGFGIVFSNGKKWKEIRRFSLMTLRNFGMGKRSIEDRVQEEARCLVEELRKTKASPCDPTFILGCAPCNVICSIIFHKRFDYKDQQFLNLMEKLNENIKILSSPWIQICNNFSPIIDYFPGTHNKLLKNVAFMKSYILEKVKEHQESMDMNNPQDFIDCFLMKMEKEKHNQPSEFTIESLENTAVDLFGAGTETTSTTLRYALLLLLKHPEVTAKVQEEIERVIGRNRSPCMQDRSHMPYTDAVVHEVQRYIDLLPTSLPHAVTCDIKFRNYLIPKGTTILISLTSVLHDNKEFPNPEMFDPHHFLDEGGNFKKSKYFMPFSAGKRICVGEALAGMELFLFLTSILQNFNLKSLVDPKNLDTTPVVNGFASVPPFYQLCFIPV

[22] = target: Cytochrome P450 2C19 (Homo sapiens, UniProt P33261); assay: Inhibition of CYP2C19 (unknown origin); type: ADME
Chain of Cytochrome P450 2C19 (P33261 whole entry): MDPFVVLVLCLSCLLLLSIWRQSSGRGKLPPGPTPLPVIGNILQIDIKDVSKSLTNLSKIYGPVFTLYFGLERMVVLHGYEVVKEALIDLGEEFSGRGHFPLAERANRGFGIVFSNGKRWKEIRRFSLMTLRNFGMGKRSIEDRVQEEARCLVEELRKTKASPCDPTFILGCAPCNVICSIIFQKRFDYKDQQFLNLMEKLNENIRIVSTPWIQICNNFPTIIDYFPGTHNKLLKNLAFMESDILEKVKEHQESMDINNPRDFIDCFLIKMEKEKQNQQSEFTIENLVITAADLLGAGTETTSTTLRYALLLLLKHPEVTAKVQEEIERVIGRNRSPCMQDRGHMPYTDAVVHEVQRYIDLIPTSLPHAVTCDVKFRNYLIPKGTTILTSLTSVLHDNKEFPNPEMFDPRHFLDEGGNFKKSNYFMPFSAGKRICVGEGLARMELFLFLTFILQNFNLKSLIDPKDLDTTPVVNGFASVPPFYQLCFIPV

[23] = target: Cytochrome P450 3A4 (Homo sapiens, UniProt P08684); assay: Inhibition of CYP3A4 (unknown origin); type: ADME
Chain of Cytochrome P450 3A4 (P08684 whole entry): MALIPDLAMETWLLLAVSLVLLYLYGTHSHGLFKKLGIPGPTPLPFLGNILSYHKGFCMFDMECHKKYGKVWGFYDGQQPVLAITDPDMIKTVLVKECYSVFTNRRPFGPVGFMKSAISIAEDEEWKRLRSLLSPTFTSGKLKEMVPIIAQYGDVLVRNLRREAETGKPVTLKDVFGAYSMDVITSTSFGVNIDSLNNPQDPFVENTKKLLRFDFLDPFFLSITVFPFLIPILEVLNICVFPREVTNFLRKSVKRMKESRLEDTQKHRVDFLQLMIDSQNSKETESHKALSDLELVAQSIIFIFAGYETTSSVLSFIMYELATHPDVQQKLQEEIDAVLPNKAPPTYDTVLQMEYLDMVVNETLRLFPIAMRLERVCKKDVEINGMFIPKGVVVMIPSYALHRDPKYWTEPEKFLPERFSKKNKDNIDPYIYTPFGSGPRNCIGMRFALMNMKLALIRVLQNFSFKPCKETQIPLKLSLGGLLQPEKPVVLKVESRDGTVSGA

[24] = Drug distribution in Sprague-Dawley rat brain at 6 micromol/kg administered via gavage measured after 0.5 hr by LC-MS/MS analysis; type: ADME, tissue-based; conditions: in vivo, po, dose 6 µmol/kg
[25] = Drug distribution in Sprague-Dawley rat brain at 6 micromol/kg administered via gavage measured after 2 hrs by LC-MS/MS analysis; type: ADME, tissue-based; conditions: in vivo, po, dose 6 µmol/kg
[26] = Drug distribution in Sprague-Dawley rat brain at 6 micromol/kg administered via gavage measured after 6 hrs by LC-MS/MS analysis; type: ADME, tissue-based; conditions: in vivo, po, dose 6 µmol/kg
[27] = Genotoxicity in Salmonella typhimurium TA97 in presence of rat liver S9 fraction by Ames test; type: toxicity, subcellular; conditions: salmonella enterica subsp. enterica serovar typhimurium
[28] = Genotoxicity in Salmonella typhimurium TA98 in presence of rat liver S9 fraction by Ames test; type: toxicity, subcellular; conditions: salmonella enterica subsp. enterica serovar typhimurium
[29] = Genotoxicity in Salmonella typhimurium TA100 in presence of rat liver S9 fraction by Ames test; type: toxicity, subcellular; conditions: salmonella enterica subsp. enterica serovar typhimurium
[30] = Genotoxicity in Salmonella typhimurium TA102 in presence of rat liver S9 fraction by Ames test; type: toxicity, subcellular; conditions: salmonella enterica subsp. enterica serovar typhimurium
[31] = Genotoxicity in Salmonella typhimurium TA1535 in presence of rat liver S9 fraction by Ames test; type: toxicity, subcellular; conditions: salmonella enterica subsp. enterica serovar typhimurium
[32] = Genotoxicity in Salmonella typhimurium TA97 in absence of rat liver S9 fraction by Ames test; type: toxicity; conditions: salmonella enterica subsp. enterica serovar typhimurium
[33] = Genotoxicity in Salmonella typhimurium TA98 in absence of rat liver S9 fraction by Ames test; type: toxicity; conditions: salmonella enterica subsp. enterica serovar typhimurium
[34] = Genotoxicity in Salmonella typhimurium TA100 in absence of rat liver S9 fraction by Ames test; type: toxicity; conditions: salmonella enterica subsp. enterica serovar typhimurium
[35] = Genotoxicity in Salmonella typhimurium TA102 in absence of rat liver S9 fraction by Ames test; type: toxicity; conditions: salmonella enterica subsp. enterica serovar typhimurium
[36] = Genotoxicity in Salmonella typhimurium TA1535 in absence of rat liver S9 fraction by Ames test; type: toxicity; conditions: salmonella enterica subsp. enterica serovar typhimurium
[37] = Toxicity in Sprague-Dawley rat assessed as animal death at 20 to 60 mg/kg, po administered daily via gavage measured for 7 days; type: organism-based; conditions: in vivo, 168 h, dose 20-60 mg/kg, time 7 day
[38] = Toxicity in Sprague-Dawley rat assessed as apparent adverse effect at 20 to 60 mg/kg, po administered daily via gavage measured for 7 days; type: organism-based; conditions: in vivo, 168 h, dose 20-60 mg/kg, time 7 day

CN1CCC(N(Cc2ccc(F)cn2)C(=O)NCc2ccc(OCC(F)(F)F)cc2)CC1
fraction unbound at 10 µM [1]: 0.383 | fraction unbound at 10 µM [2]: 0.309 | IC50 [3]: > 100000 nM | remaining at 100 µM [4]: 66.5% | Ki [5]: 0.2 nM | pKa [6]: 8.51 | fraction unbound at 10 µM [7]: 0.418 | IC50 [8]: 1100 nM | IC50 [9]: 2.1 nM | half-life at 100 µM [10]: 1.72 h | half-life at 100 µM [11]: > 3.1 h | CLint scaled at 100 µM [12]: 34.1 mL/min/kg | CLint scaled at 100 µM [13]: < 6.7 mL/min/kg | remaining at 100 µM [14]: 89.2% | Ki [15]: 139 nM | Ki [16]: 2 nM | logD [17]: 1.97 | solubility [18]: 710 µg/mL (≈ 1560 µM) | remaining at 100 µM [19]: 76.4% | IC50 [20]: 8500 nM | IC50 [21]: > 100000 nM | IC50 [22]: 62900 nM | IC50 [23]: > 100000 nM | Ct [24]: 120 nmol/kg | Ct [25]: 164 nmol/kg | Ct [26]: 100 nmol/kg | Activity [27]: Non-Toxic | Activity [28]: Non-Toxic | Activity [29]: Non-Toxic | Activity [30]: Non-Toxic | Activity [31]: Non-Toxic | Activity [32]: Non-Toxic | Activity [33]: Non-Toxic | Activity [34]: Non-Toxic | Activity [35]: Non-Toxic | Activity [36]: Non-Toxic | Activity [37]: Non-Toxic | Activity [38]: Non-Toxic
